Measurements taken from ChEMBL document CHEMBL5260859, “Discovery and structure-activity relationship study of 2-piperazinyl-benzothiazole derivatives as potent and selective PPARδ agonists” (Bioorg Med Chem, 2023).
pEC50: −log10 of the molar value.

Key:
Assay type in all cases: cell-based
[1] = target: T1, Peroxisome proliferator-activated receptor delta (Homo sapiens, UniProt Q03181); assay: Agonist activity at Gal4-fused human PPAR-delta ligand binding domain expressed in CHO-K1 cells assessed as receptor transactivation incubated for 24 to 48 hrs by luciferase reporter gene assay
T1 sequence (Q03181 whole entry): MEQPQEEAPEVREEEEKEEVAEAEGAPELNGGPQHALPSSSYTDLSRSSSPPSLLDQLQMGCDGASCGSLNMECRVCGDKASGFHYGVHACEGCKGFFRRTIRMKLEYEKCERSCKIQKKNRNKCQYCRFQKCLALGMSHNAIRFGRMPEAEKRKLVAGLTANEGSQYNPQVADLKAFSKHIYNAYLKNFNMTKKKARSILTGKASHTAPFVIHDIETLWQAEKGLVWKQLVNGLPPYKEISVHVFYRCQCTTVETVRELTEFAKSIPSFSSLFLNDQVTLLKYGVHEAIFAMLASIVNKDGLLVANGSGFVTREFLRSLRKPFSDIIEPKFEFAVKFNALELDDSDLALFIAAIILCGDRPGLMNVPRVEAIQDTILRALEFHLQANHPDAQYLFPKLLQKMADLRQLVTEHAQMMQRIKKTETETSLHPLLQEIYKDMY

[2] = target: T2, Peroxisome proliferator-activated receptor delta (Homo sapiens) (UniProt Q03181); assay: Agonist activity at Gal4-fused human PPAR-delta ligand binding domain expressed in CHO-K1 cells assessed as receptor transactivation incubated for 24 to 48 hrs by luciferase reporter gene assay relative to control; settings: time lower 24.0 hrs, time upper […]
T2 sequence (whole entry): T1 sequence (Q03181 whole entry)

[3] = target: T3, Peroxisome proliferator-activated receptor alpha (Homo sapiens) (UniProt Q07869); assay: Agonist activity at Gal4-fused human PPAR-alpha ligand binding domain expressed in CHO-K1 cells assessed as receptor transactivation incubated for 24 to 48 hrs by luciferase reporter gene assay relative to control; settings: time lower 24.0 hrs, time upper […]
T3 sequence (whole entry): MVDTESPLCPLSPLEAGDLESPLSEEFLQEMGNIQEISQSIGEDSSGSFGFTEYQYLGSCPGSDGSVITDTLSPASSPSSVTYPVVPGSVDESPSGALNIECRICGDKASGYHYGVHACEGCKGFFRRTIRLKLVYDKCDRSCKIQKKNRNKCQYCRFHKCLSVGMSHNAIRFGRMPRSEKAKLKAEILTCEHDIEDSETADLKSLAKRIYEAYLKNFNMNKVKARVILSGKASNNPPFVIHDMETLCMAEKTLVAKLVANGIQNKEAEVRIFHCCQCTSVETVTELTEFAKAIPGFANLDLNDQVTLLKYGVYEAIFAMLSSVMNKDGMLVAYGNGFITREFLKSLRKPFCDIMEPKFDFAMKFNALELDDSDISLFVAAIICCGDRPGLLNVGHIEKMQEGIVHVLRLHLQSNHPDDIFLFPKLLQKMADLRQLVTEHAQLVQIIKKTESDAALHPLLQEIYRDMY

[4] = species on record: Homo sapiens; assay: Selectivity ratio of EC50 for agonist activity at Gal4-fused human PPAR-alpha ligand binding domain expressed in CHO-K1 cells to EC50 for agonist activity at Gal4-fused human PPAR-delta ligand binding domain expressed in CHO-K1 cells
[5] = target: T4, Peroxisome proliferator-activated receptor delta (Mus musculus) (UniProt P35396); assay: Agonist activity at Gal4-fused mouse PPAR-delta ligand binding domain expressed in CHO-K1 cells assessed as receptor transactivation incubated for 24 to 48 hrs by luciferase reporter gene assay relative to control; settings: time lower 24.0 hrs, time upper […]
T4 sequence (whole entry): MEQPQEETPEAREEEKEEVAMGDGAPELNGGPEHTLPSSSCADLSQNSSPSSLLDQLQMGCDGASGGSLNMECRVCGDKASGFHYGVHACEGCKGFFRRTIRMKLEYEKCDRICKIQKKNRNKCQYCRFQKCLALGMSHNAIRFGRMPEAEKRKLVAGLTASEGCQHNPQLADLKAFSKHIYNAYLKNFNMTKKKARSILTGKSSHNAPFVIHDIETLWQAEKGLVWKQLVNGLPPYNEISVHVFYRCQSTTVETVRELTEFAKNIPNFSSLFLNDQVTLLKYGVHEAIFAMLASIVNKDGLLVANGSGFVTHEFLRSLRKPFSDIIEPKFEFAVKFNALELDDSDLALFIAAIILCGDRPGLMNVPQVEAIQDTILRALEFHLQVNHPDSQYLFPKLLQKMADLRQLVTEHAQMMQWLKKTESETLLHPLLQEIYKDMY

[6] = target: T5, Peroxisome proliferator-activated receptor alpha (Mus musculus) (UniProt P23204); assay: Agonist activity at Gal4-fused mouse PPAR-alpha ligand binding domain expressed in CHO-K1 cells assessed as receptor transactivation incubated for 24 to 48 hrs by luciferase reporter gene assay relative to control; settings: time lower 24.0 hrs, time upper […]
T5 sequence (whole entry): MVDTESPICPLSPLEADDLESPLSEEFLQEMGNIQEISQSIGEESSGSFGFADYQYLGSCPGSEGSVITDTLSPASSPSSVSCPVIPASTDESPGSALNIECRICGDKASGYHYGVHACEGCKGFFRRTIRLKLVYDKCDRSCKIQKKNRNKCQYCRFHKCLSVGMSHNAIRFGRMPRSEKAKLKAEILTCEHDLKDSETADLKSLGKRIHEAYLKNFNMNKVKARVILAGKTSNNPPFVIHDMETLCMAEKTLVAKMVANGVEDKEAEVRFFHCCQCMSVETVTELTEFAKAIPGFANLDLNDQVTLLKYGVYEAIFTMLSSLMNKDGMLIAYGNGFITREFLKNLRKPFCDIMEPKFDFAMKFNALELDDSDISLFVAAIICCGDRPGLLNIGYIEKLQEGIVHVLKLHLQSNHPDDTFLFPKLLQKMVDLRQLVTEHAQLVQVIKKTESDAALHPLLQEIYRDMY

[7] = species on record: Mus musculus; assay: Selectivity ratio of EC50 for agonist activity at Gal4-fused mouse PPAR-alpha ligand binding domain expressed in CHO-K1 cells to EC50 for agonist activity at Gal4-fused mouse PPAR-delta ligand binding domain expressed in CHO-K1 cells
[8] = target: T6, Peroxisome proliferator-activated receptor gamma (Mus musculus, UniProt P37238); assay: Agonist activity at Gal4-fused mouse PPAR-gamma ligand binding domain expressed in CHO-K1 cells assessed as receptor transactivation incubated for 24 to 48 hrs by luciferase reporter gene assay
T6 sequence (P37238 whole entry): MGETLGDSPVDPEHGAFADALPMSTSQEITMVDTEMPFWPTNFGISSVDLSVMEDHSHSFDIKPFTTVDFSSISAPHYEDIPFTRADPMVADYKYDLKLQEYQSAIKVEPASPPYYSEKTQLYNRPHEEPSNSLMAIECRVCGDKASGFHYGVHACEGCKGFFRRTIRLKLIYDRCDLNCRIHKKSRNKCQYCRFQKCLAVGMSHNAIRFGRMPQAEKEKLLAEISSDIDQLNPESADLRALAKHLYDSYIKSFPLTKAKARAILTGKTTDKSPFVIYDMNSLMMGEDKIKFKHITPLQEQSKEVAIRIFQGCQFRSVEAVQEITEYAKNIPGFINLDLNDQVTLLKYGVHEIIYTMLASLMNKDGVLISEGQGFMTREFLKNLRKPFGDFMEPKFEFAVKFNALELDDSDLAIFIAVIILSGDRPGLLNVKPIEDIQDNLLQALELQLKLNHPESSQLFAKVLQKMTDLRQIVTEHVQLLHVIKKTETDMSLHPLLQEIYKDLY

| Compound | pEC50 [1] | Emax [2] | Emax [3] | Ratio EC50 [4] | Emax [5] | Emax [6] | Ratio EC50 [7] | pEC50 [8] |
| --- | --- | --- | --- | --- | --- | --- | --- | --- |
| Cc1cc(CC(=O)O)cc(CN2CCN(c3nc4ccc(C(F)(F)F)cc4s3)[C@@H](C)C2)c1 | 8.00 | 14% | 6.3% | 175 | 20.4% | 9% | 100 | 5.57 |
| Cc1cc(CC(=O)O)cc(CN2CCN(c3nc4ccc(C(F)(F)F)cc4s3)[C@H](C)C2)c1 | 8.21 | 13.5% | 6.3% | 258 | 20.8% | 1.7% | 152 | 5.74 |
